Measurements published in article PMC4556275 (Drug metabolism and pharmacokinetics, 2010).

Experiments:
[1] = Metabolic stability in pooled human liver microsomes; type: in vitro ADME; settings: for CLint (microsomal): 1 μM substrate, 0.5 mg/mL HLM protein, 37°C; for ER (extraction ratio) / Hepatic CL: well-stirred model, Q 1400 mL/min, fu assumed 1
[2] = Metabolite profiling in HLM incubations by MRM-IDA-EPI; type: in vitro ADME, human; settings: HLM incubation, MRM-IDA-EPI method

SMILES | CLint (microsomal) [1] | ER (extraction ratio) [1] | Hepatic CL [1] [mL/min] | number of metabolites formed and detected [2]
O=C(N1CCCCC1)N1CC(=O)N2CCc3ccccc3C2C1 (stereo not drawn) [PZ07, 2-piperidinylcarbonyl-1,2,3,6,7,11b-hexa-hydro-4H-pyrazino(2,1-α)isoquinoline-4-one] | 22.0 μl/min/mg microsomal protein | 0.43 | 607.9 | –
O=C(N1CCC(F)(F)CC1)N1CC(=O)N2CCc3ccccc3C2C1 (stereo not drawn) [PZ10, 2-(4,4-difluoropiperidinyl)carbonyl-1,2,3,6,7,11b-hexa-hydro-4H-pyrazino(2,1-α)isoquinoline-4-one] | 16.2 μl/min/mg microsomal protein | 0.36 | 505.5 | Eight
O=C(C1CCC(F)(F)CC1)N1CC(=O)N2CCc3ccccc3C2C1 (stereo not drawn) [PZ02, 2-(4,4-difluorocyclohexyl)carbonyl-1,2,3,6,7,11b-hexahydro-4H-pyrazino(2,1-α)isoquinoline-4-one] | 22.8 μl/min/mg microsomal protein | 0.44 | 620.2 | Nine
